# From patent US4550186A, “Binuclear copper (II) carboxylates formed from amine-carboxyboranes” (Duke University, priority 1983, dated 1985)
# Where two headings read alike, the source gives them in different places.
# Tests used:
# Acetyl CoA synthetase = test: In vitro liver enzyme study: acetyl CoA synthetase; type: biochemical, mouse; conditions: in vitro CF1 liver, 30 min
# Protocol: In vitro enzymatic studies were determined using 10% homogenates of CF1 male mouse liver with 50-200 μM of test drugs. In vivo enzymatic studies were determined using 10% homogenates of liver from CF1 male mice obtained after administering the agents for 16 days at a dose ranging from 2.5-20 mg/kg/day intraperitoneally. The liver homogenates for both in vitro and in vivo studies were prepared in 0.25M sucrose and 0.001M (ethylenedinitrilo)tetraacetic acid. Acetyl coenzyme A synthetase and adenosine triphosphate dependent citrate lyase activities were determined spectrophotometrically at 540 nm as the hydroxylamate of acetyl coenzyme A formed after 30 min at 37° C. Mitochondrial citrate exchange was determined by the procedure of Robinson et al [Eur. J. Biochem., 216, 63 (1970)] using ^14 C-sodium bicarbonate (41 mCi/mmol) incorporated into mitochondrial ^14 C-citrate after isolating rat mitochondria (9000 g×10 min) from the homogenates. The exchanges of the ^14 C-citrate were determined after incubating the mitochondrial fraction which was loaded with labeled citrate and test drugs for 10 min. Then the radioactivity was measured in the mitochondrial and supernantant fractions in scintillation fluid and expressed as a percentage. Cholesterol side chain oxidation was determined by the method of Kritchevsky and Tepper [Artherosclerosis, 18, 93 (1973)] using (26-^14 C) cholesterol (50 mCi/mmol) and mitochondria isolated from rat liver homogenates. […] Fatty acid synthetase activity was determined by the method of Brady et al [J. Biol. Chem., 235, 3093 (1960)] using [2-^14 C] malonyl-coenzyme A (37.5 mCi/mmol) which was incorporated into newly synthesized fatty acids that were extracted with ether and counted. Acyl transferase activity was determined with glycerol-3phosphate [L-2-^3 H(N)] […] HCl and counted. Phosphatidate phosphohydrolase activity was measured as the inorganic phosphate released after 30 min from phosphatidic acid by the method of Mavis et al [J. Lipid Res., 19, 467 (1978)]. […]
# [1] = tested on: inosinic acid dehydrogenase; test: In vivo inosinic acid dehydrogenase activity; parameters: species or system mouse
# Protocol: CF1 male mice (~30 g) were implanted with 2×10^6 Ehrlich ascites tumor cells, intraperitoneally on Day 0. Compound I was suspended by homogenation in 0.05% polysorbate.80-water and administered intraperitoneally at 10 and 20 mg/kg for 9 days to determine its effectiveness for inhibition of tumor growth. Mice were sacrificed on Day 10, and the ascites fluid was collected from the peritoneal cavity. The volume and ascrit (packed cell volume) were determined for each animal and the percent inhibition of tumor growth was calculated. For the metabolic studies, mice were treated on Days 8 and 9 with 10 mg/kg of Compound I, intraperitoneally. […]
# Carbamyl phosphate synthetase activity was determined using the reaction medium of Kalman et al [Am. […] Citrulline formed from ornithine was measured at 490 nm by the method of Archibald [J. Biol. Chem., 156, 121 (1944)]. […] The ^14 CO2 generated in 15 min was trapped in 1M KOH and counted. Thymidylate synthetase activity was determined using a post-mitochondrial supernatant (9000 g×10 min) and 5 μCi of 5-^3 H-deoxyuridine monophosphate (14 Ci/mmol) according to the method of Kampf et al [ J. Med. Chem., 19, 903 (1976)]. ^14 C-Formate incorporation into purines was determined by the method of Spassova et al [Biochem. Pharmacol., 25, 923 (1976)] using 0.5 μCi of ^14 C-formic acid (52.0 mCi/mmol). […] The Rf value for xanthine monophosphate was scraped and counted. […]
substance,measurement,setting,value
{Cu[(CH3)3 N.BH2 CO2 ]2.(CH3)3 N.BH2 COOH} [Compound I],Acetyl CoA synthetase,Acetyl CoA synthetase; 50 μM,104 ± 5 Percent Control
same,Acetyl CoA synthetase,Acetyl CoA synthetase; 100 μM,87 ± 4 Percent Control
same,Acetyl CoA synthetase,Acetyl CoA synthetase; 200 μM,84 ± 5 Percent Control
same,Inosinic acid dehydrogenase activity,[1],essentially not affected
same,Inosinic acid dehydrogenase activity,[1]; 10 mg/kg/day I.P. on Days 8 and 9,100 ± 9 % Control
